We go through 39 compounds from US20220347175A1, “PYRIDAZINONE DERIVATIVE” (Sumitomo Dainippon Pharma Co., Ltd., priority 2018, published 2022).

In one test the target is T1, human Nav1.1 (Homo sapiens, UniProt P35498).
T1 construct: host or cells: HEK293
Put plainly: Amplification of Nav1.1-derived voltage-dependent sodium current (Nav1.1 current), cell line stably expressing human Nav1.1, automated patch clamp. It counts as cell-based. Put shortly:
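Automated whole-cell voltage-clamp recordings used HEK293 cells stably expressing human Nav1.1, keeping only cells with >500 pA current, with currents evoked by ramp voltage. Compounds were applied in extracellular fluid with 1% DMSO, and amplification (%) was computed from peak current or AUC after versus before addition.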

The target of another test is T2, human Nav1.5 (Homo sapiens, UniProt Q14524).
T2 construct: expressed in transfected cells; host or cells: CHO-K1 (T-REx System, ThermoFisher Scientific)
Put plainly: Amplification of Nav1.5-derived voltage-dependent sodium current (Nav1.5 current), cell line stably expressing human Nav1.5, automated patch clamp. It counts as cell-based. The procedure: Test 2: Evaluation of the Amplification in Nav1.5-Derived Voltage-Dependent Sodium Current (Nav1.5 Current) by Using a Cell Line Stably Expressing Human Nav1.5
A CHO-K1 cell line (Chinese hamster ovary) stably expressing human Nav1.5 (Gene Bank Accession No: P000326.2) was obtained by using purchased T-Rex System (ThermoFisher Scientific, USA), and used for the present test. The effect of test compounds on the amplification of Nav1.5 current was evaluated by using a cell line stably expressing human Nav1.5 and HTS automated patch clamp system, similarly in the method using Nav1.1. In other words, test compounds were added in an extracellular fluid which contained 1% DMSO and 500 nmol/L Tetrodotoxin (TTX), and evaluated as a change of the peak value of Nav1.5 current and the area under the curve (AUC). The induction and the measurement of Nav1.5 current, the pharmacologic effect on Nav1.5 current, and a method for pharmacological evaluation were carried out by the same method as in Nav1.1.

The mark [1] stands for this setting: 10 μmol/L compound, change of the area under the curve of Nav1.1 current (Test Result 1).
The mark [2] stands for this setting: 10 μmol/L compound, change of the area under the curve of Nav1.5 current (Test Result 1).
The mark [3] stands for this setting: compound 3 μmol/L, HEK293 stably expressing human Nav1.1.
[4] abbreviates: compound 3 μmol/L, CHO-K1 stably expressing human Nav1.5.
Setting [5] is: compound 1 μmol/L, HEK293 stably expressing human Nav1.1.
[6] abbreviates: compound 1 μmol/L, CHO-K1 stably expressing human Nav1.5.

T2 sequence (Q14524 1-2015 isoform Q14524-2): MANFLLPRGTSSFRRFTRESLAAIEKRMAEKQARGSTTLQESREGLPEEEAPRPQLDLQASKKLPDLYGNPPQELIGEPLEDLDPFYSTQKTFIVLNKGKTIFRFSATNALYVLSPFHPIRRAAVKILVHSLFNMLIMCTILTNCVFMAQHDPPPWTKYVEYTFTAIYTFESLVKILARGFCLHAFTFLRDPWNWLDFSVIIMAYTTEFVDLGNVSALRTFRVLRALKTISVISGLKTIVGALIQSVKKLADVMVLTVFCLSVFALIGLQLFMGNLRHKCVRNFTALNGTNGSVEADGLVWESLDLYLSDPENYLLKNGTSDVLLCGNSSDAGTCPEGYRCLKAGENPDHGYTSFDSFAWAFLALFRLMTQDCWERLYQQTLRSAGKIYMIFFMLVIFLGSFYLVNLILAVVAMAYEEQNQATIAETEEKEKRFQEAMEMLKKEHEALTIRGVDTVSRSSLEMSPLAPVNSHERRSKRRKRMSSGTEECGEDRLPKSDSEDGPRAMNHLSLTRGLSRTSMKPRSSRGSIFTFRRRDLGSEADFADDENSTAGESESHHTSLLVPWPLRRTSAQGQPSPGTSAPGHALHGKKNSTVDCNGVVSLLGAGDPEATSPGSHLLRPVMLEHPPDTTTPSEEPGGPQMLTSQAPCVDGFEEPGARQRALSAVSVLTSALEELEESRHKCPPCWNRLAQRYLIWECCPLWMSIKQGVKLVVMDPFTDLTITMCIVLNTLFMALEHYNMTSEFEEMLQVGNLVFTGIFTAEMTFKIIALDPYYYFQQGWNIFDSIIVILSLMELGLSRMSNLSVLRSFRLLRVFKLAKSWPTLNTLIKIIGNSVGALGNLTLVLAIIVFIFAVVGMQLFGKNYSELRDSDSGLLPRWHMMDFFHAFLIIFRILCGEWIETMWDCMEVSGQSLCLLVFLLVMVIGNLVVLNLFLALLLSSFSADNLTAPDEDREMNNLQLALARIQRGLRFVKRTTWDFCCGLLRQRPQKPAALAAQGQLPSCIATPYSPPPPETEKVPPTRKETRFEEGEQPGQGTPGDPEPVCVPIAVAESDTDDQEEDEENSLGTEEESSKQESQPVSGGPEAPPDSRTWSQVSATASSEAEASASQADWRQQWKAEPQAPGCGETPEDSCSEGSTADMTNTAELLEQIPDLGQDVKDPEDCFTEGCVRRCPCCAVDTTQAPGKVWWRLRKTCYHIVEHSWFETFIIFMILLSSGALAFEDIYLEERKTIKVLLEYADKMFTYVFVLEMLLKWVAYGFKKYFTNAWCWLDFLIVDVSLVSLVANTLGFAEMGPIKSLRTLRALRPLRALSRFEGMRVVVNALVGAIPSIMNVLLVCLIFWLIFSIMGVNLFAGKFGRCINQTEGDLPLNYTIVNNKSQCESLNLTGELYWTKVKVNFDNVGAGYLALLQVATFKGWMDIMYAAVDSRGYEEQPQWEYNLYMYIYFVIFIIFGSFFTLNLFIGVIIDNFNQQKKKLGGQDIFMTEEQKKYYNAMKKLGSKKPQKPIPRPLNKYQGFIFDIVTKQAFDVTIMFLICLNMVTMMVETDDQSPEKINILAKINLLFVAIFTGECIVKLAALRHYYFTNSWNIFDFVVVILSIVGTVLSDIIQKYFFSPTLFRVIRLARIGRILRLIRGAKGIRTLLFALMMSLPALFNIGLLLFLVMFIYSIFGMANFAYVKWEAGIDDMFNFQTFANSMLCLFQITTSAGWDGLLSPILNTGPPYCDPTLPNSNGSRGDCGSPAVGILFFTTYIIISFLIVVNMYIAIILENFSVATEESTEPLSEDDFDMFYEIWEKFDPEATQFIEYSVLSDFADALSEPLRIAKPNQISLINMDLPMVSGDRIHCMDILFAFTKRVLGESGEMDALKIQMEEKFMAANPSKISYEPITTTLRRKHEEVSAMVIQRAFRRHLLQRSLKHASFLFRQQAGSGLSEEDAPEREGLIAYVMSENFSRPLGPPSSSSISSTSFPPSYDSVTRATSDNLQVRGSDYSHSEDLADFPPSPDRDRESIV

For `CC1CC=C(c2ccc(=O)n(CC(=O)N3CCc4cc(N5CCOCC5)ccc43)n2)CC1` (racemic) [Example 246], the “Nav1.1 current amplification rate (%)” value on human Nav1.1 (setting [1]) worked out at 136%. Further, on human Nav1.5 (setting [2]), the “Nav1.5 current amplification rate (%)” value is recorded as 145%.
On the same counts, the results for `CC1CC=C(c2ccc(=O)n(CC(=O)N3CCc4c3ccnc4Cl)n2)CC1` (racemic) [Example 247] are 53% and 43%.
As for `CC1CC=C(c2ccc(=O)n(CC(=O)N3CCc4c(-c5cccnc5)cccc43)n2)CC1` (racemic) [Example 248], the “Nav1.1 current amplification rate (%)” value on human Nav1.1 (setting [3]) is reported as 392%. In addition, on human Nav1.5 (setting [4]), the “Nav1.5 current amplification rate (%)” value came out at 44%.
Consider `COc1ncc(-c2cccc3c2CCN3C(=O)Cn2nc(C3=CCC(C)CC3)ccc2=O)cn1` (racemic) [Example 249], for which the “Nav1.1 current amplification rate (%)” value at human Nav1.1 (setting [3]) turned out to be 584%. For the same compound, the “Nav1.5 current amplification rate (%)” value on human Nav1.5 (setting [4]) is on record as 106%.
On the same counts, the results for `CC1CC=C(c2ccc(=O)n(CC(=O)N3CCc4c(-c5ccncc5)cccc43)n2)CC1` (racemic) [Example 250] are 564% and 121%.
On the same counts, the results for `CC1CC=C(c2ccc(=O)n(CC(=O)N3CCc4c(-c5ccnn5C)cccc43)n2)CC1` (racemic) [Example 251] are 307% and 15%.
On to `CC1CC=C(c2ccc(=O)n(CC(=O)N3CCc4c(-c5ccn(C)n5)cccc43)n2)CC1` (racemic) [Example 252], for which the “Nav1.1 current amplification rate (%)” value at human Nav1.1 (setting [3]) is 254%. The “Nav1.5 current amplification rate (%)” value at human Nav1.5 (setting [4]) is reported as 31%.
As for `CC1CC=C(c2ccc(=O)n(CC(=O)N3CCc4c(-c5ccnnc5)cccc43)n2)CC1` (racemic) [Example 253], the “Nav1.1 current amplification rate (%)” value at human Nav1.1 (setting [3]) worked out at 455%. In addition, the “Nav1.5 current amplification rate (%)” value on human Nav1.5 (setting [4]) came to 85%.
Regarding `CC1CC=C(c2ccc(=O)n(CC(=O)N3CCc4c(-c5cn[nH]c5)cccc43)n2)CC1` (racemic) [Example 254], on human Nav1.1 (setting [3]), the “Nav1.1 current amplification rate (%)” value was 309%. Moreover, at human Nav1.5 (setting [4]), the “Nav1.5 current amplification rate (%)” value came out at 74%.
With `CC1CC=C(c2ccc(=O)n(CC(=O)Nc3cccc4nccn34)n2)CC1` (racemic) [Example 255], on human Nav1.1 (setting [1]), the “Nav1.1 current amplification rate (%)” value came out at 32%. Moreover, on human Nav1.5 (setting [2]), the “Nav1.5 current amplification rate (%)” value is listed as 15%.
The corresponding values for `CC1CC=C(c2ccc(=O)n(CC(=O)N3CCC(c4ccccc4)CC3)n2)CC1` (racemic) [Example 256] are 36% and −30%.
For `CC1CC=C(c2ccc(=O)n(CC(=O)N3CC=C(c4ccccc4)CC3)n2)CC1` (racemic) [Example 257], at human Nav1.1 (setting [3]), the “Nav1.1 current amplification rate (%)” value was 45%. Moreover, on human Nav1.5 (setting [4]), the “Nav1.5 current amplification rate (%)” value was 0%.
As for `CC1CC=C(c2ccc(=O)n(CC(=O)N3CCN(c4ccccc4)CC3)n2)CC1` (racemic) [Example 258], the “Nav1.1 current amplification rate (%)” value at human Nav1.1 (setting [3]) came out at 79%. Also, the “Nav1.5 current amplification rate (%)” value at human Nav1.5 (setting [4]) turned out to be 4%.
`CC1CC=C(c2ccc(=O)n(CC(=O)N3CCC(c4ccncc4)CC3)n2)CC1` (racemic) [Example 259]: the “Nav1.1 current amplification rate (%)” value on human Nav1.1 (setting [1]) stood at 71%. Further, the “Nav1.5 current amplification rate (%)” value at human Nav1.5 (setting [2]) worked out at 2%.
For `CC1CC=C(c2ccc(=O)n(CC(=O)N3CCC(c4ccccn4)CC3)n2)CC1` (racemic) [Example 260], on human Nav1.1 (setting [1]), the “Nav1.1 current amplification rate (%)” value was found to be 13%. In addition, the “Nav1.5 current amplification rate (%)” value at human Nav1.5 (setting [2]) is −6%.
Consider `CC1CC=C(c2ccc(=O)n(CC(=O)N3CCN(c4ccncc4)CC3)n2)CC1` (racemic) [Example 261], for which the “Nav1.1 current amplification rate (%)” value on human Nav1.1 (setting [1]) is on record as 60%. For the same compound, the “Nav1.5 current amplification rate (%)” value on human Nav1.5 (setting [2]) stood at 1%.
On the same counts, the results for `CC1CC=C(c2ccc(=O)n(CC(=O)N3CCN(c4cncc(F)c4)CC3)n2)CC1` (racemic) [Example 263] are 342% and 32%.
With `Cc1ncc(-c2cccc3c2CCN3C(=O)Cn2nc(C3=CCC(C)CC3)ccc2=O)cn1` (racemic) [Example 264], the “Nav1.1 current amplification rate (%)” value at human Nav1.1 (setting [3]) worked out at 597%. Besides, at human Nav1.5 (setting [4]), the “Nav1.5 current amplification rate (%)” value worked out at 65%.
Take `CC1CC=C(c2ccc(=O)n(CC(=O)N3CCc4c(C5=CCNC5)cccc43)n2)CC1` (racemic) [Example 265]: the “Nav1.1 current amplification rate (%)” value at human Nav1.1 (setting [3]) is 110%. In addition, the “Nav1.5 current amplification rate (%)” value on human Nav1.5 (setting [4]) is reported as 19%.
As to `CC1CC=C(c2ccc(=O)n(CC(=O)N3CCc4c(CO)cccc43)n2)CC1` (racemic) [Example 266], the “Nav1.1 current amplification rate (%)” value on human Nav1.1 (setting [3]) is 108%. The “Nav1.5 current amplification rate (%)” value on human Nav1.5 (setting [4]) is 128%.
As for `CC1CC=C(c2ccc(=O)n(CC(=O)N3CCc4c(C5=CCN(C)C5)cccc43)n2)CC1` (racemic) [Example 267], on human Nav1.1 (setting [3]), the “Nav1.1 current amplification rate (%)” value was 231%. In addition, the “Nav1.5 current amplification rate (%)” value at human Nav1.5 (setting [4]) stood at 79%.
As for `CC1CC=C(c2ccc(=O)n(CC(=O)N3CCc4c(CN5CCOCC5)cccc43)n2)CC1` (racemic) [Example 270], the “Nav1.1 current amplification rate (%)” value on human Nav1.1 (setting [3]) is reported as 481%. For the same compound, the “Nav1.5 current amplification rate (%)” value at human Nav1.5 (setting [4]) is recorded as 78%.
Regarding `CC1CC=C(c2ccc(=O)n(CC(=O)N3CCc4c(CN5CCCC5)cccc43)n2)CC1` (racemic) [Example 271], on human Nav1.1 (setting [3]), the “Nav1.1 current amplification rate (%)” value was 48%. Moreover, on human Nav1.5 (setting [4]), the “Nav1.5 current amplification rate (%)” value came to 70%.
For the compound `CC1CC=C(c2ccc(=O)n(CC(=O)N3CCc4c(CN(C)C5COC5)cccc43)n2)CC1` (racemic) [Example 276], at human Nav1.1 (setting [5]), the “Nav1.1 current amplification rate (%)” value was determined as 207%. For the same compound, the “Nav1.5 current amplification rate (%)” value at human Nav1.5 (setting [6]) is 47%.
With `CC1CC=C(c2ccc(=O)n(CC(=O)N3CCc4c3cccc4C(C)(C)O)n2)CC1` (racemic) [Example 277], the “Nav1.1 current amplification rate (%)” value on human Nav1.1 (setting [5]) is recorded as 210%. Moreover, at human Nav1.5 (setting [6]), the “Nav1.5 current amplification rate (%)” value came to 18%.
The corresponding values for `CC1CC=C(c2ccc(=O)n(CC(=O)N3CCc4c(Cn5ccnc5)cccc43)n2)CC1` (racemic) [Example 286] are 848% and 579%.
In the case of `CC1CC=C(c2ccc(=O)n(CC(=O)N3CCc4c(CN5CC=CC5)cccc43)n2)CC1` (racemic) [Example 287], the “Nav1.1 current amplification rate (%)” value on human Nav1.1 (setting [5]) was 73%. The “Nav1.5 current amplification rate (%)” value at human Nav1.5 (setting [6]) is reported as 123%.
Consider `CC1CC=C(c2ccc(=O)n(CC(=O)N3CCOc4c(-c5cn[nH]c5)cccc43)n2)CC1` (racemic) [Example 290], for which the “Nav1.1 current amplification rate (%)” value at human Nav1.1 (setting [3]) was 94%. Besides, the “Nav1.5 current amplification rate (%)” value at human Nav1.5 (setting [4]) is reported as 4.5%.
For the compound `CC1CC=C(c2ccc(=O)n(CC(=O)N3CCc4c(Cn5cncn5)cccc43)n2)CC1` (racemic) [Example 294], the “Nav1.1 current amplification rate (%)” value on human Nav1.1 (setting [5]) was 271%. Also, at human Nav1.5 (setting [6]), the “Nav1.5 current amplification rate (%)” value worked out at 427%.
Regarding `CC1CC=C(c2ccc(=O)n(CC(=O)N3CCc4c(C5CNC5)cccc43)n2)CC1` (racemic) [Example 299], at human Nav1.1 (setting [3]), the “Nav1.1 current amplification rate (%)” value was 6%. In addition, at human Nav1.5 (setting [4]), the “Nav1.5 current amplification rate (%)” value stood at 10%.
Consider `CC1CC=C(c2ccc(=O)n(CC(=O)N3CCc4c(C5CN(C)C5)cccc43)n2)CC1` (racemic) [Example 300], for which the “Nav1.1 current amplification rate (%)” value at human Nav1.1 (setting [3]) turned out to be 140%. The “Nav1.5 current amplification rate (%)” value on human Nav1.5 (setting [4]) is given as 55%.
For the compound `CC1CC=C(c2ccc(=O)n(CC(=O)N3CCc4c(C5CN(C6COC6)C5)cccc43)n2)CC1` (racemic) [Example 301], the “Nav1.1 current amplification rate (%)” value on human Nav1.1 (setting [3]) is given as 410%. Moreover, the “Nav1.5 current amplification rate (%)” value at human Nav1.5 (setting [4]) is 55%.
Turning to `CCN1CC(c2cccc3c2CCN3C(=O)Cn2nc(C3=CCC(C)CC3)ccc2=O)C1` (racemic) [Example 302], the “Nav1.1 current amplification rate (%)” value on human Nav1.1 (setting [3]) is 104%. At human Nav1.5 (setting [4]), the “Nav1.5 current amplification rate (%)” value turned out to be 79%.
The corresponding values for `CC1CC=C(c2ccc(=O)n(CC(=O)N3CCc4c(C5CN(CCO)C5)cccc43)n2)CC1` (racemic) [Example 303] are 67% and 11%.
For the compound `CC1CC=C(c2ccc(=O)n(CC(=O)N3CCc4c(C5CN(C6CCOC6)C5)cccc43)n2)CC1` (racemic) [Example 305], the “Nav1.1 current amplification rate (%)” value on human Nav1.1 (setting [3]) worked out at 314%. Moreover, the “Nav1.5 current amplification rate (%)” value on human Nav1.5 (setting [4]) worked out at 117%.
The corresponding values for `CC1CC=C(c2ccc(=O)n(CC(=O)N3CCc4c(C5CN(C(=O)C(C)(C)O)C5)cccc43)n2)CC1` (racemic) [Example 306] are 532% and 327%.
For the compound `CC1CC=C(c2ccc(=O)n(CC(=O)N3CCc4c(OCC(C)(C)O)cccc43)n2)CC1` (racemic) [Example 307], on human Nav1.1 (setting [3]), the “Nav1.1 current amplification rate (%)” value stood at 320%. Moreover, the “Nav1.5 current amplification rate (%)” value at human Nav1.5 (setting [4]) came out at 37%.
Turning to `CC1CC=C(c2ccc(=O)n(CC(=O)N3CCc4c(-c5cn[nH]c5)cncc43)n2)CC1` (racemic) [Example 311], the “Nav1.1 current amplification rate (%)” value at human Nav1.1 (setting [5]) is reported as 265%. Moreover, the “Nav1.5 current amplification rate (%)” value at human Nav1.5 (setting [6]) was 52%.
On the same counts, the results for `CC1CC=C(c2ccc(=O)n(CC(=O)N3CCc4c(CNC5COC5)cccc43)n2)CC1` (racemic) [Example 313] are 84% and 133%.
